Test system: Human platelets
Experiment: ADP-stimulated platelet aggregation assay (gel-filtered human platelets)
Format: cell-based
Settings: fibrinogen 100 μg/ml, Ca^2+ 1 mM, 10 uM ADP, 37° C., read-out: platelet aggregation inhibition potency, IC50
Experimental: An ADP-stimulated platelet aggregation assay was used to determine inhibition associated with compounds of the invention.
Human platelets were isolated from fresh blood, collected into acid citrate/dextrose by differential centrifugation followed by gel filtration on Sepharose 2B in divalent ion-free Tyrode's buffer (pH 7.4) containing 2% bovine serum albumin. Platelet aggregation was measured at 37° C. in a a Chronolog aggregometer. The reaction mixture contained gel-filtered human platelets (2×10^8 per ml), fibrinogen (100 μg/ml), Ca^2+ (1 mM), and the compound to be tested. Aggregation was initiated by adding 10 uM ADP 1 minute after the other components had been added. The reaction was allowed to proceed for at least 2 minutes. The extent of inhibition of aggregation was expressed as the percentage of the rate of aggregation observed in the absence of inhibitor. The IC50 is the dose of a particular compound inhibiting aggregation by 50% relative to a control lacking the compound.

O=C(O)CCNC(=O)c1ccc2c(c1)C(=O)N(CCCC1CCNCC1)C2
IC50: 0.92 µM

O=C(O)CNC(=O)c1ccc2c(c1)C(=O)N(CCCC1CCNCC1)C2
IC50: 14 µM
